According to publication PMC10367051, “Comprehensive Mechanistic View of the Hydrolysis of Oxadiazole-Based Inhibitors by Histone Deacetylase 6 (HDAC6)” (ACS Chemical Biology, 2023):

Legend:
Assay type in all cases: biochemical
zHDAC6 (Y745F) = target: T1, zHDAC6 (Y745F) (Danio rerio, UniProt F8W4B7, Y745F); assay: Inhibition assay, zebrafish HDAC6 catalytic DD2 domain, Y745F mutant
T1 construct: Danio rerio HDAC6 (amino acids 440–798; zHDAC6); His (N, cleaved yes); MBP (N, cleaved yes); made in house; host or cells: RIPL Escherichia coli
T1 sequence (F8W4B7 440-798 Y745F): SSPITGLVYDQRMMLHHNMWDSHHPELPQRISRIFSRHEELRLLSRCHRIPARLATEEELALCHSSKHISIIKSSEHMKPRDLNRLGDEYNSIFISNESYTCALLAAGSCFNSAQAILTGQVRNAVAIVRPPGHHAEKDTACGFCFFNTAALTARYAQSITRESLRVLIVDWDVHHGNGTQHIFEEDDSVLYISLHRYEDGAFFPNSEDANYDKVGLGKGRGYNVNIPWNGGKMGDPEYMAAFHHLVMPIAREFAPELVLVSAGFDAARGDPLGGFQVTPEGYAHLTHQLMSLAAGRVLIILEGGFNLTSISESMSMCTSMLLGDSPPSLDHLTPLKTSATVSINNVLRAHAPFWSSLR
Description: The second catalytic domain of Danio rerio HDAC6 (amino acids 440–798; zHDAC6) was expressed in RIPL Escherichia coli as described previously using the pEC566-zHDAC6 expression vector.[16],[38] Briefly, bacteria were incubated at 37 °C with shaking (250 rpm) until the optical density reached an OD600 = 0.5. Then, the culture was cooled to 18 °C for 1 h, and recombinant protein expression was induced by the addition of 75 μM isopropyl β-D-1-thiogalactopyranoside together with 200 μM ZnSO4. The culture was grown at 18 °C for an additional 18 h and harvested by centrifugation at 5500g for 15 min. The cell pellet was resuspended in the lysis buffer (50 mM phosphate, 300 mM NaCl, 10% glycerol, and 20 mM imidazole at pH 8; 5 mL g^–1 bacterial pellet) and lysed by three passages through EmulsiFlex (Avestin). Cell lysates were centrifuged (15,000g at 4 °C for 20 min), and the fusion protein in the supernatant was purified via Ni-NTA chromatography. Fractions containing the His-MBP-HDAC6 fusion were concentrated to 2 mg mL^–1 and cleaved overnight by the addition of TEV protease (zHDAC6/TEV 1:20 ratio). The cleaved tag and the TEV protease were sequentially removed using amylose (New England Biolabs) and HisTrap columns (Cytiva), and zHDAC6 was further purified by size-exclusion chromatography on a HiLoad Superdex 75 pg column (GE Healthcare Bio-Sciences). Fractions containing zHDAC6 were pooled, concentrated to 10 mg mL^–1, flash-frozen in liquid nitrogen, and stored at −80 °C. The purity of protein preparations was monitored by SDS-PAGE (Figure S2).
The zHDAC6 mutants (Y745F and H574A) were constructed using the Quick-change site-directed mutagenesis protocol with the pEC566-zHDAC6 expression plasmid as a template. Both mutants were expressed and purified as described above for wild-type zHDAC6 (Figure S2).
(§1) Optimized fluorometric assays were used to determine inhibition constants of studied compounds against individual HDAC isoforms as described previously.[32] Briefly, reactions were performed in the activity buffer comprising 50 mM HEPES, 140 mM NaCl, and 10 mM KCl at pH 7.4 supplemented with 1 mg mL^–1 bovine serum albumin (BSA), 1 mM tris(2-carboxyethyl)phosphine (TCEP), 10 μM substrates, and optimized concentrations of HDACs. The Ac-Gly-Ala-[Lys-Ac]-7-amino-methylcoumarylamide (AMC) substrate was used to profile HDACs 1, 2, 3, and 6; Boc-[Lys-TFA]-7-amino-methylcoumarylamide was used for HDACs 4, 5, 7, 8, and 9 (both substrates: Bachem); fluorescein-labeled N8-acetylspermidine was used for HDAC10;[32] and an internally quenched TNFα-derived peptide derivative was used for HDAC11.[39] Deacetylation reactions were monitored either by high-performance liquid chromatography (HPLC) (HDAC10) or by quantification of released AMC (λex/λem = 365/440 nm) using a CLARIOstar plate reader (BMG Labtech GmbH).

HDAC9 = target: T2, HDAC9 (Homo sapiens, UniProt Q9UKV0); assay: Fluorometric HDAC inhibition assay, HDAC9; settings: purified human protein; Boc-[Lys-TFA]-AMC substrate 10 μM; 15 min preincubation
T2 construct: TwinStrep-FLAG-HALO (N, cleaved yes); made in house; host or cells: HEK293/T17
Description: (§2) Large-scale expression of recombinant human HDACs was carried out as described previously.[32],[37] Briefly, HEK293/T17 cells were transiently transfected with expression pMM222 plasmids comprising N-terminally tagged (TwinStrep-FLAG-HALO tag; Figure S1) HDAC genes using linear poly(ethyleneimine) (PEI, Polysciences Inc.). Cells were harvested three days post-transfection, and cell pellets were resuspended in the lysis buffer (100 mM Tris-HCl, 10 mM NaCl, 5 mM KCl, 2 mM MgCl2, and 10% glycerol at pH 8.0). Cells were disrupted by sonication, cell lysates were cleared by centrifugation, and soluble fusion proteins were first purified by Streptactin affinity chromatography (IBA). For all HDACs but HDACs 1, 10, and 11, the N-terminal tag was cleaved off overnight by the addition of TEV protease (10:1 HDAC/TEV ratio). Size-exclusion chromatography on a Superose 6 column (GE Healthcare Bio-Sciences; running buffer 30 mM HEPES, 140 mM NaCl, 10 mM KCl, 3% glycerol, and 0.25 mM TCEP) was used as the final purification step for all HDAC constructs.
as §1

HDAC11 = target: T3, HDAC11 (Homo sapiens, UniProt Q96DB2); assay: HDAC11 inhibition assay (internally quenched peptide); settings: purified human protein; internally quenched TNFα-derived peptide substrate; 15 min preincubation
T3 construct: made in house; host or cells: HEK293/T17
T3 sequence (Q96DB2 1-347): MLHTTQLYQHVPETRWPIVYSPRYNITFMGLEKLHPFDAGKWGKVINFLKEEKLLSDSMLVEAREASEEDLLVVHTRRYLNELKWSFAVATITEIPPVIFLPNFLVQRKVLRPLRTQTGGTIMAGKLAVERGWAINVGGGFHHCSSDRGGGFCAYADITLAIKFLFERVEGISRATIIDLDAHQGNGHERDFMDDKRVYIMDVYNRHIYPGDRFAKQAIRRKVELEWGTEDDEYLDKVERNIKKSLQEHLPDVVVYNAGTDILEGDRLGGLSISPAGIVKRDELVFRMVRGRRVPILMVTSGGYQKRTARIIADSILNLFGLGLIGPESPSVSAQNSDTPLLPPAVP
Description: as §2, §1

HDAC4 = target: T4, HDAC4 (Homo sapiens, UniProt P56524); assay: Fluorometric HDAC inhibition assay, HDAC4; settings: purified human protein; Boc-[Lys-TFA]-AMC substrate 10 μM; 15 min preincubation
T4 construct: TwinStrep-FLAG-HALO (N, cleaved yes); made in house; host or cells: HEK293/T17
Description: as §2, §1

HDAC5 = target: T5, HDAC5 (Homo sapiens, UniProt Q9UQL6); assay: Fluorometric HDAC inhibition assay, HDAC5; settings: purified human protein; Boc-[Lys-TFA]-AMC substrate 10 μM; 15 min preincubation
T5 construct: TwinStrep-FLAG-HALO (N, cleaved yes); made in house; host or cells: HEK293/T17
Description: as §2, §1

HDAC1 = target: T6, HDAC1 (Homo sapiens, UniProt Q13547); assay: Fluorometric HDAC inhibition assay, HDAC1; settings: purified human protein; Ac-Gly-Ala-[Lys-Ac]-AMC substrate 10 μM; 15 min preincubation
T6 construct: made in house; host or cells: HEK293/T17
Description: as §2, §1

HDAC3 = target: T7, HDAC3 (Homo sapiens, UniProt O15379); assay: Fluorometric HDAC inhibition assay, HDAC3; settings: purified human protein; Ac-Gly-Ala-[Lys-Ac]-AMC substrate 10 μM; 15 min preincubation
T7 construct: TwinStrep-FLAG-HALO (N, cleaved yes); made in house; host or cells: HEK293/T17
Description: as §2, §1

T4 sequence (P56524 whole entry): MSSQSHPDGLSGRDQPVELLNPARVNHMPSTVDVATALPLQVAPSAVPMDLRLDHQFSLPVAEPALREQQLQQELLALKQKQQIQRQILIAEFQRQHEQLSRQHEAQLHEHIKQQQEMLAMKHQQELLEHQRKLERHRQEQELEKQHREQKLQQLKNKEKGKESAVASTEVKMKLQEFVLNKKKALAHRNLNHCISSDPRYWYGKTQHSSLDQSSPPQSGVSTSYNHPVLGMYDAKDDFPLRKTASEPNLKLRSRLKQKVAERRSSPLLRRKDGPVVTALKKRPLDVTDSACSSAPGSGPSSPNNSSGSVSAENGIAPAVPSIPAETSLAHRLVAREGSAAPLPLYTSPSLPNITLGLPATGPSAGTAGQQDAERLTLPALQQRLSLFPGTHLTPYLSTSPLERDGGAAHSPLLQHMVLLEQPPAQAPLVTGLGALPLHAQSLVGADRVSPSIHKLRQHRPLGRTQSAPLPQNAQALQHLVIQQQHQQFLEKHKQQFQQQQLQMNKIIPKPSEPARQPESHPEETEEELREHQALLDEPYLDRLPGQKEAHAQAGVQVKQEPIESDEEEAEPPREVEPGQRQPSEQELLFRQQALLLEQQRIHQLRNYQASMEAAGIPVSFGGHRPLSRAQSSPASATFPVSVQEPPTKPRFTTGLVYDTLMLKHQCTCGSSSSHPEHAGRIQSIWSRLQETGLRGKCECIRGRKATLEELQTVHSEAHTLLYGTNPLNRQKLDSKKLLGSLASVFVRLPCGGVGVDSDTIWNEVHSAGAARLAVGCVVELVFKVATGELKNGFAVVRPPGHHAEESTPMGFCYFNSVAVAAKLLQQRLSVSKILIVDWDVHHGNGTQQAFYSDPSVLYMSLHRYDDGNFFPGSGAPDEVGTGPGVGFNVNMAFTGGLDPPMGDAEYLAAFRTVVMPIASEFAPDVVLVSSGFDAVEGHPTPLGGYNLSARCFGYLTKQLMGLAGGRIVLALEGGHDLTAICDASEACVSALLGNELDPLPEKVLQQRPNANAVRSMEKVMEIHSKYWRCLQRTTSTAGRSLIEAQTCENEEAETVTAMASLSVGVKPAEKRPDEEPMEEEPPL
T7 sequence (O15379 whole entry): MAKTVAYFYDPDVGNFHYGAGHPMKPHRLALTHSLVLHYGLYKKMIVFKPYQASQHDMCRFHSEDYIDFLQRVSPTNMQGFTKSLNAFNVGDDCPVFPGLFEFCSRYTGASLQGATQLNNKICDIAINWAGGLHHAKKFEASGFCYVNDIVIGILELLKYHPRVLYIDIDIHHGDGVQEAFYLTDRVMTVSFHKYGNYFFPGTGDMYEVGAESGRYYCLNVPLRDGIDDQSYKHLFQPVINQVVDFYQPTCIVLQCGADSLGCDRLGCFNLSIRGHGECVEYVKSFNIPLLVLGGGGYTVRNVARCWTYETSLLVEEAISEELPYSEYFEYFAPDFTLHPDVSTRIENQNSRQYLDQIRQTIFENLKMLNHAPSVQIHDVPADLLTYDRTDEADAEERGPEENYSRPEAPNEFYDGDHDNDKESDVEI
T7 sequence (Q9Y618 389-480 partner limits assumed): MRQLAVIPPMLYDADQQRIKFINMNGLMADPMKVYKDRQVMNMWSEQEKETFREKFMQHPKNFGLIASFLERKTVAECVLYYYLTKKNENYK
T5 sequence (Q9UQL6 whole entry): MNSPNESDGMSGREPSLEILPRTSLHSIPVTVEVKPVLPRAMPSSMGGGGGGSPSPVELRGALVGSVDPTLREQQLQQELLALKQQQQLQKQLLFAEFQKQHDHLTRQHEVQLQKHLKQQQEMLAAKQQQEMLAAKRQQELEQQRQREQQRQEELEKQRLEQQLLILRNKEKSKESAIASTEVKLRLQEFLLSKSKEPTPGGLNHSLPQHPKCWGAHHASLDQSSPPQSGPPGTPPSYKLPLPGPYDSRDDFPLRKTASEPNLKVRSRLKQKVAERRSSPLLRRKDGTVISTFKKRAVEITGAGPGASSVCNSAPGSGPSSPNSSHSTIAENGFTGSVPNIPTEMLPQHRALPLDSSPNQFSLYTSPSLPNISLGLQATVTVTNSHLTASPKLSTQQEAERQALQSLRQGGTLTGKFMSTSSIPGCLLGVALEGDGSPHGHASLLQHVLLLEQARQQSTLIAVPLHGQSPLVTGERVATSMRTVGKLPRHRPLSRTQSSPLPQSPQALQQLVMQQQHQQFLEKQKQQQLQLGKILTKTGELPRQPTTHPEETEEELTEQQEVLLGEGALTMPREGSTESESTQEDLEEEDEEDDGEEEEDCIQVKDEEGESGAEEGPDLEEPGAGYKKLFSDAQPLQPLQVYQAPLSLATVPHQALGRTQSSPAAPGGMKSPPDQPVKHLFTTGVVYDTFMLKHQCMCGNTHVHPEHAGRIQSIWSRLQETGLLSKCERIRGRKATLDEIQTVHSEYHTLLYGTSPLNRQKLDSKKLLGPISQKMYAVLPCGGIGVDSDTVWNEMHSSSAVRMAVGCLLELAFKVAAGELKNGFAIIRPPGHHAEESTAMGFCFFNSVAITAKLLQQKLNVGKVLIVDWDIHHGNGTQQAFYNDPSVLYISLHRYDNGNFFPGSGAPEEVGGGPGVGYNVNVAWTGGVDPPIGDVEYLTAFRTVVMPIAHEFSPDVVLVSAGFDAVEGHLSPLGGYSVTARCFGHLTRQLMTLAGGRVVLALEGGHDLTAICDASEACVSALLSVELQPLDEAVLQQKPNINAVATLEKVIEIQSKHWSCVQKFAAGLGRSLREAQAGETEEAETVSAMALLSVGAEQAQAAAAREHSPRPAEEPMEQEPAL
T6 sequence (Q13547 whole entry): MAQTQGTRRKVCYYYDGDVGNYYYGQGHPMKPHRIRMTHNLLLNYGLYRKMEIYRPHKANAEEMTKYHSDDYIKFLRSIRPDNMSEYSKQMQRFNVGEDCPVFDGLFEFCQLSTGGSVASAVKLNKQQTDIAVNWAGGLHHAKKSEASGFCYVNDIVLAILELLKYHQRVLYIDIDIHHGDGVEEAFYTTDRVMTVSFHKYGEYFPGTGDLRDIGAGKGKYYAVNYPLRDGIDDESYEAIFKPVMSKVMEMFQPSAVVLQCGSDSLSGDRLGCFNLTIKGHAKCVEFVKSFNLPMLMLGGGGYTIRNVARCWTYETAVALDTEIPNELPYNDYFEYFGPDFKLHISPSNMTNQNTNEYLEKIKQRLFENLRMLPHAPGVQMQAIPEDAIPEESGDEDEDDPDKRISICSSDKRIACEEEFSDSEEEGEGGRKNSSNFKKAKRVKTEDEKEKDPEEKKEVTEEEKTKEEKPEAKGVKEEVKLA
T2 sequence (Q9UKV0 whole entry): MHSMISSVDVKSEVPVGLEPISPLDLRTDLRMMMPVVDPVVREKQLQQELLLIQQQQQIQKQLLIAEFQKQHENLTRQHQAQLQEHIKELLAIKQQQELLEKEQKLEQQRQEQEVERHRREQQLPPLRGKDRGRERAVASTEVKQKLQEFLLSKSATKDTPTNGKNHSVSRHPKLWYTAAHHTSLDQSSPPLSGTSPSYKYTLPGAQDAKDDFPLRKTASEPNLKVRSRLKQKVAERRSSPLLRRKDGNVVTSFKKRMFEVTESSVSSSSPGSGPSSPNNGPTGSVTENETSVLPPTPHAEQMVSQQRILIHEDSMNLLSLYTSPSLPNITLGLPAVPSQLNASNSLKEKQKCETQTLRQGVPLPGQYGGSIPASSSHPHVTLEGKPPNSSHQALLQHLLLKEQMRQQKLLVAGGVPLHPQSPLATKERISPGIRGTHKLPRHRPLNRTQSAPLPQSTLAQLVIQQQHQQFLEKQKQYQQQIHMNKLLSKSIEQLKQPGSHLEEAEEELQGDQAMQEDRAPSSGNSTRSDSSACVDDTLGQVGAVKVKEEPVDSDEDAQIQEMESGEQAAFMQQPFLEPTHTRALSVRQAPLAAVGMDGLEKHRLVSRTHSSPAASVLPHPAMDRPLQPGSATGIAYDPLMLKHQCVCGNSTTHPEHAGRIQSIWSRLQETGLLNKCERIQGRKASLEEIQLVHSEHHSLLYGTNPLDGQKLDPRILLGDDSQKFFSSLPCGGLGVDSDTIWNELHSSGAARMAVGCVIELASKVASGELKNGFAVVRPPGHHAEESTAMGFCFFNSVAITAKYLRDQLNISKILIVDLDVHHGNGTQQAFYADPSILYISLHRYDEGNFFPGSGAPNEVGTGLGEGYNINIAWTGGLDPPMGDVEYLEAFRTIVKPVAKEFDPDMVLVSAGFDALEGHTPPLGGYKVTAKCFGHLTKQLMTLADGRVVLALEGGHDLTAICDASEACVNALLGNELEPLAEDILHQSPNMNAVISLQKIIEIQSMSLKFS

CS(=O)(=O)N(Cc1ccc(C(=O)NN)cn1)c1cccc(Cl)c1 [compound 4]
IC50 (zHDAC6 (Y745F)): > 50 µM
IC50 (HDAC9): > 20 µM
IC50 (HDAC11): > 20 µM
IC50 (HDAC4): > 20 µM
IC50 (HDAC5): > 20 µM
IC50 (HDAC1): > 20 µM
IC50 (HDAC3): > 20 µM

CS(=O)(=O)N(Cc1ccc(-c2nnc(C(F)F)o2)cn1)c1cccc(Cl)c1 [compound 8]
IC50 (zHDAC6 (Y745F)): 0.075 ± 0.026 µM
IC50 (HDAC9): > 20 µM
IC50 (HDAC11): > 20 µM
IC50 (HDAC4): > 20 µM
IC50 (HDAC5): > 20 µM
IC50 (HDAC1): > 20 µM
IC50 (HDAC3): > 20 µM

CS(=O)(=O)N(Cc1ccc(-c2nnc(C(F)(F)F)o2)cn1)c1cccc(Cl)c1 [compound 7]
IC50 (zHDAC6 (Y745F)): 0.311 ± 0.15 µM
IC50 (HDAC9): > 20 µM
IC50 (HDAC11): > 20 µM
IC50 (HDAC4): > 20 µM
IC50 (HDAC5): > 20 µM
IC50 (HDAC1): > 20 µM
IC50 (HDAC3): > 20 µM

CS(=O)(=O)N(Cc1ccc(C(=O)NNC(=O)C(F)F)cn1)c1cccc(Cl)c1 [compound 6]
IC50 (zHDAC6 (Y745F)): > 50 µM
IC50 (HDAC4): > 20 µM
IC50 (HDAC1): > 20 µM

CS(=O)(=O)N(Cc1ccc(C(=O)NNC(=O)C(F)(F)F)cn1)c1cccc(Cl)c1 [compound 5]
IC50 (zHDAC6 (Y745F)): > 20 µM
IC50 (HDAC4): > 20 µM
IC50 (HDAC1): 9.17 µM
